Results taken from patent US7981875B2, “2″ oxo-voruscharin and derivatives thereof” (priority 2002, dated 2011).
Where two headings read alike, the source gives them in different places.

Legend:
[1] = Maximum Tolerated Dose in healthy mice; format: in vivo; conditions: single administration in mice, healthy animals, 14 days post-injection
Experimental: The Maximum Tolerated Dose (MTD) of a given drug is defined as the maximum amount of a drug which can be administered acutely (i.e. in one i.p., i.v., s.c. or per os single dose) to healthy animals, i.e. animals not grafted with tumors. The survival times and weights of the animals are recorded up to 14 days post-injection. Five different doses of each drug are used for the determination of the MTD index. When the MTD index is higher than 160 mg/kg (i.p. administration) the drug is usually considered to be non-toxic, and the highest dose administered to tumor-bearing mice is MTD/2=80 mg/kg. Each experimental group was composed of 3 mice for the determination of the MTD index.

U-373 MG = test: MTT test, overall cell growth; format: cell-based, human; conditions: U-373, MTT, 72 hours of incubation
Experimental: (§1) In order to characterize the in vitro activities of the compounds according to the invention, MTT tests were carried out. The MTT test, which is a well-known test in the art, is an indirect technique that rapidly measures, i.e. within 5 days, the effect of a given product on the overall cell growth. This test measures the number of metabolically active living cells that are able to transform the MTT product (3-(4,5-dimethylthiazol-2-yl)-2,5 diphenyl tetrazolium bromide), having a yellowish color, to the blue product formazan dye by mitochondrial reduction. The amount of formazan obtained at the end of the experiment is measured with a spectrophotometer and is directly proportional to the number of living cells. Determination of the optical density enables a quantitative measurement of the effect of the investigated compounds as compared to the control condition (untreated cells) and to compare it to other reference compound. In the following examples different compounds according to the invention were tested and compared to the reference compound being uscharin.
(§2) Six human cancer cell lines, described in Table C, were tested in the presence of compounds according to the invention. These cell lines covered four histological cancer types, being Glioma, colon, lung and bladder cancer. The cells were allowed to grow in 96-well micro wells with a flat bottom with an amount of 100 μl of cell suspension per well in reason to 4000 cells/well depending on cell type. Each cell line was seeded in its own cell culture medium (Table C).
(§3) After a 24-hour period of incubation at 37° C., the culture medium is replaced by 100 μl of fresh medium in which the compound to be tested has been dissolved at different required concentrations. Different compounds were tested at 10^−9 M, 5×10^−9 M, 10^−8 M, 5×10^−8 M, 10^−7 M, 5×10^−7 M, 10^−6 M, 5×10^−6 M et 10^−5 M. Each experimental condition is carried out in hexaplicate. The compounds tested are 2″ oxo-voruscharin, and compounds B, C, D, E, H and I represented in Table B above.
(§4) After 72 hours of incubation at 37° C. with the compound (experimental conditions) or without the compound (control condition), the medium was replaced by 100 μl MTT at the concentration of 1 mg/ml dissolved in RPMI. The micro wells were subsequently incubated during 3 hours at 37° C. and centrifuged at 400 g during 10 minutes. The MTT was removed and formazan crystals formed, were dissolved in 100 μl DMSO. The micro wells were shaken for 5 minutes and read on a spectrophotometer at the wavelengths of 570 nm corresponding to the maximum formazan absorbance wavelength, and of 630 nm, which is the background noise wavelength.
(§5) For each experimental condition, the mean OD associated with the SEM (standard error of the mean) for each condition (6 wells) was calculated. The percentage of remaining living cells in comparison with the control was calculated. Results of these experiments are represented in FIGS. 2 to 8.

J82 = test: MTT test, overall cell growth; format: cell-based, human
Experimental: as §1, §2, §3, §4, §5

Hs683 = test: MTT test, overall cell growth; format: cell-based, human
Experimental: as §1, §2, §3, §4, §5

LoVo = test: MTT test, overall cell growth; format: cell-based, human; conditions: 72 hours of incubation
Experimental: as §1, §2, §3, §4, §5

HCT-15 = test: MTT test, overall cell growth; format: cell-based, human
Experimental: as §1, §2, §3, §4, §5

A549 = test: MTT test, overall cell growth; format: cell-based, human; conditions: 72 hours of incubation
Experimental: as §1, §2, §3, §4, §5

Capan-2 (Pancreas) = test: MTT test, overall cell growth; format: cell-based, human; conditions: Capan-2 cell line
Experimental: as §1, with “In the following examples different compounds according to the invention were tested and compared to the reference compound being uscharin.” left out
as §4, with “The micro wells were subsequently incubated during 3 hours at 37° C. and centrifuged at 400 g during 10 minutes. The MTT was removed and formazan crystals formed, were dissolved in 100 μl DMSO.” left out, “wavelength. […]” for “wavelength.”

PC-3 (Prostate) = test: MTT test, overall cell growth; format: cell-based, human; conditions: PC-3 cell line
Experimental: as §1, with “In the following examples different compounds according to the invention were tested and compared to the reference compound being uscharin.” left out
as §4, with “The micro wells were subsequently incubated during 3 hours at 37° C. and centrifuged at 400 g during 10 minutes. The MTT was removed and formazan crystals formed, were dissolved in 100 μl DMSO.” left out, “wavelength. […]” for “wavelength.”

[2] = test system: PC-3 orthotopic xenograft; test: Orthotopic refractory prostate cancer model; format: in vivo, nude mice; conditions: from 7th day post-graft
Experimental: Three types of results were obtained with in vivo anti-tumor pharmacology: 1) the cumulative toxicity of chemotherapeutic administrations through recording the weights of the tumor-bearing mice during treatment, 2) the actual anti-tumor effect exerted at tumor growth level. If the tumor models are grafted subcutaneously (s.c.), tumor size is measured three times a week by means of a caliper and expressed as an area (mm^2) by multiplying together the two largest perpendicular diameters, and 3) the gain in survival for the animals treated, which is evaluated by means of the T/C index. This index is the ratio between the median survival time of the group of treated animals (T) and that of the control group. The drug is considered to be active if the T/C value is above 130% (P<0.05), and toxic for a value lower than 70%.
In addition to the xenografted models of Example 6, the antitumoral activity of compound B was evaluated in orthotopic xenografted models PC3 (Prostate) and Capan2 (Pancreas).
Compound B was evaluated in vivo on highly invasive orthotopic PC-3 refractory prostate cancer model by measurement of T/C index, as described in Example 6 of the specification.

CC1CC2(NC(=O)CS2)C2(O)OC3CC4(C=O)C(CCC5C4CCC4(C)C(C6=CC(=O)OC6)CCC54O)CC3OC2O1 (stereo not drawn) [2″oxo-voruscharin, 2″ oxo-voruscharin]
MTD index [1]: 20 mg/kg
IC50 (U-373 MG; Homo sapiens, U373 MG): 0.01 to 0.05 µM
IC50 (J82; Homo sapiens, J82, MTT, 72 hours of incubation, read-out: IC50 value): > 10 µM
IC50 (J82; Homo sapiens, J82, Table E, concentration used for flow cytometry, chosen in accordance with MTT results, read-out: IC50): 4.1 µM
IC30 (J82; J82, Table E, concentration which kills 30% of the cell population): 1.7 µM
IC50 (Hs683; Homo sapiens, Hs 683, Hs683, MTT, 72 hours of incubation, read-out: IC50 value): 0.001 to 0.005 µM
IC50 (Hs683; Homo sapiens, Hs 683, Hs683, Table E, concentration used for flow cytometry, chosen in accordance with MTT results, read-out: IC50): 0.17 µM
IC30 (Hs683; Hs683, Table E, concentration which kills 30% of the cell population): 0.0083 µM
IC50 (LoVo; Homo sapiens): 0.005 to 0.01 µM
IC30 (HCT-15; HCT-15, Table E, concentration which kills 30% of the cell population): 0.0041 µM
IC50 (HCT-15; Homo sapiens, HCT-15, MTT, 72 hours of incubation, read-out: IC50 value): 0.01 to 0.05 µM
IC50 (HCT-15; Homo sapiens, HCT-15, Table E, concentration used for flow cytometry, chosen in accordance with MTT results, read-out: IC50): 0.012 µM
IC50 (A549; Homo sapiens): 0.01 to 0.05 µM

CC1CC2(NC(=O)CS2)C2(O)OC3CC4(CO)C(CCC5C4CCC4(C)C(C6=CC(=O)OC6)CCC54O)CC3OC2O1 (stereo not drawn) [Compound B]
MTD index [1]: 80 mg/kg
IC50 (U-373 MG): 0.01 to 0.05 µM
IC50 (J82; J82, MTT, 72 hours of incubation, read-out: IC50 value): 5 to 10 µM
IC50 (Hs683; Hs683, MTT, 72 hours of incubation, read-out: IC50 value): 1 to 5 µM
IC50 (LoVo): 0.001 to 0.005 µM
IC50 (HCT-15; HCT-15, MTT, 72 hours of incubation, read-out: IC50 value): 0.01 to 0.05 µM
IC50 (A549): 0.01 µM
IC50 (Capan-2 (Pancreas)): 0.001 µM
IC50 (PC-3 (Prostate)): 0.005 to 0.01 µM
T/C value ([2]; i.p. DMT/4 (20 mg/kg), 5ix6w): 177%
T/C value ([2]; per os DMT/2 (40 mg/kg), 5dx6w): 132%
